Data taken from patent US20240125729A1, “METHODS AND RELATED ASPECTS OF DETECTING TARGET MOLECULES USING CYCLIC VOLTAMMETRY” (THE JOHNS HOPKINS UNIVERSITY, priority 2021, published 2024).
Where “and” joins values, the source holds several entries; their conditions need not be identical. Equal entries are not always repeated.

Assays:
[1] = molecular target: vancomycin-binding aptamer; assay: Cyclic voltammetry ΔEP interrogation of vancomycin-detecting E-AB sensors in undiluted serum
Protocol: (§1) ΔEP-based interrogation of E-AB sensors supports molecular measurements in complex media such as undiluted serum. Moreover, the approach can be used to interrogate E-AB sensors detecting different molecular targets. […] Furthermore, the relative change in ΔEP at 10 mM tobramycin was 30% less than the gain seen in phosphate-buffered saline. Both of these effects were previously reported for serum tobramycin E-AB measurements performed by chronoamperometry, confirming that ΔEP is not more prone to fouling than, for example, chronoamperometric current decay lifetimes. […] Last, procaine-detecting E-AB sensors presented the largest change in ΔEP, corresponding to a relative decrease of ˜80% at saturating procaine concentrations (FIG. 11C). Based on our calibration curve, the procaine-binding aptamer has a KD of ˜500 μM, slightly better than the affinity obtained by, for example, square-wave voltammetry (KD˜2 mM, FIG. 12). […]
(§2) Electrochemical measurements. […] Cyclic voltammograms were recorded at different scan rates in the potential window from −0.5 V to +0.1 V vs Ag/AgCl (1M KCl). Square-wave voltammograms were recorded from 0 V to −0.5 V vs Ag/AgCl (1M KCl) with an amplitude of 50 mV, a step size of 1 mV, and at 300 Hz. […]
(§3) Electrode modification. […] After rinsing with water, electrodes were ready for use. […]

[2] = test system: tobramycin-binding aptamer; assay: Cyclic voltammetry (ΔEP / IP) interrogation of tobramycin-detecting E-AB sensors
Description: The magnitude of ΔEP in cyclic voltammetry can be used to interrogate changes in the apparent electron transfer kinetics of E-AB sensors. ΔEP is affected by a mass transfer (diffusional) component related to the conformation switching behavior of aptamers; thus, measured changes in ΔEP reflect target-binding induced changes in aptamer conformation. We first illustrate this effect employing tobramycin-detecting E-AB sensors (FIG. 5), which have been extensively validated in the literature and represent a well-understood model system. In these E-AB sensors, interrogation by cyclic voltammetry in the absence of target and at voltage scanning rates of ˜1-10 V·s^−1 results in voltammograms with a ΔEP ˜100 mV (FIG. 5A). However, the addition of a saturating concentration of tobramycin (10 mM) causes a significant increase in apparent electron transfer kinetics with a concomitant decrease in ΔEP to ˜30 mV (FIG. 5A, B). Similar measurements at varying tobramycin concentrations can be translated into dose-response curves (FIG. 5C). The dissociation constant estimated by extrapolating the mid-point of these dose-response curves to the x-axis, KD˜80 μM, is similar to previously reported KD measurements based on chronoamperometric and differential pulse measurements.
As with all E-AB interrogation methods, there is a tradeoff between the maximum signal gain observed by ΔEP and the apparent dissociation constant of the sensors. To illustrate this, we measured dose-response curves as shown in FIG. 5C at scanning rates ranging from 0.5 to 100 V·s^−1 (FIG. 6). Then, we determined the apparent dissociation constant at each scanning rate by performing a non-linear regression of the data sets using the Hill isotherm. […] Moreover, the shape of the voltammograms was distorted at fast scanning rates, preventing the accurate determination of ΔEP (FIG. 8). Thus, taking into consideration the results presented in FIGS. 7A and B, we determined that the best CV interrogation rate for tobramycin-detecting E-AB sensor was 5 V·s^−1.
E-AB interrogation via ΔEP achieves larger signal gains relative to interrogation based on CV peak heights. To illustrate this point, we measured dose-response curves at the optimal voltage scanning rate of 5 V·s^−1 and compared the response based on voltammogram peak currents, IP, at varying tobramycin concentrations relative to the proposed ΔEP-based method (FIG. 7C). To achieve a direct comparison between approaches, we calculated the relative change in signal at each concentration with respect to the signal measured in the absence of target (this is common practice in the field). By graphing IP vs concentration, we observed a ‘signal-on’ type of response, with IP increasing to a plateau of 20% relative signal change at saturation. Using ΔEP, in contrast, we observed a ‘signal-off’ type of response, with ΔEP decreasing by 80% relative signal change at saturation. […] On the other hand, ΔEP provides a signal-off response that is less desirable than the signal-on response achieved by monitoring IP. Typically, the use of signal-off sensing is sub-optimal for continuous monitoring in complex fluids, as matrix effects can induce signal decreases unrelated to fluctuations in target concentration that can be confounding during sensing.
ΔEP-based interrogation of E-AB sensors supports molecular measurements in complex media such as undiluted serum. Moreover, the approach can be used to interrogate E-AB sensors detecting different molecular targets. […] Furthermore, the relative change in ΔEP at 10 mM tobramycin was 30% less than the gain seen in phosphate-buffered saline. Both of these effects were previously reported for serum tobramycin E-AB measurements performed by chronoamperometry, confirming that ΔEP is not more prone to fouling than, for example, chronoamperometric current decay lifetimes. […]

procaine-binding aptamer [3] = assay: Cyclic voltammetry ΔEP interrogation of procaine-detecting E-AB sensors in undiluted serum
Protocol: as §1, §2, §3

procaine-binding aptamer [4] = assay: Square wave voltammetry calibration of procaine-binding E-AB sensors; conditions: 100 Hz, amplitude 50 mV, step 1 mV, read-out: KD (dissociation constant) by square-wave voltammetry
Protocol: FIG. 12 is a plot showing a calibration curve for procaine-binding E-AB sensors obtained by square wave voltammetry. The Hill's coefficient and dissociation constant obtained were 0.97±0.05 and 1.9±0.2 mM, respectively. Each point represents the average of 5·measurements at a frequency of 100 Hz, amplitude of 50 mV, and step potential of 1 mV.
These sequences were purchased modified on the 5′end with hexanethiol and on the 3′end with MB, and double HPLC purified. To prepare aptamer solutions for electrode modification, 1 μL of 100 μM of the modified sequences was incubated with 2 μL of 5 mM TCEP solution in water for 1 hour to reduce the disulfide bonds. Then, we diluted the aptamer solutions in 1 mM 6-mercaptohexanol aqueous solution to a final aptamer concentration of 500 nM.
Electrochemical measurements. Gold working (PN 002314, d=1.6 mm) and coiled platinum wire counter electrodes (PN 012961) were purchased from ALS Inc. (Japan). Ag/AgCl (1M KCl) reference electrodes (PN CHI111) were purchased from CH Instruments (USA). […] Cyclic voltammograms were recorded at different scan rates in the potential window from −0.5 V to +0.1 V vs Ag/AgCl (1M KCl). Square-wave voltammograms were recorded from 0 V to −0.5 V vs Ag/AgCl (1M KCl) with an amplitude of 50 mV, a step size of 1 mV, and at 300 Hz. […]
as §3

[5] = CV 5 V·s^−1, phosphate-buffered saline, relative to no target

## CN[C@H](CC(C)C)C(=O)N[C@H]1C(=O)N[C@@H](CC(N)=O)C(=O)N[C@H]2C(=O)N[C@H]3C(=O)N[C@H](C(=O)N[C@H](C(=O)O)c4cc(O)cc(O)c4-c4cc3ccc4O)[C@H](O)c3ccc(c(Cl)c3)Oc3cc2cc(c3O[C@@H]2O[C@H](CO)[C@@H](O)[C@H](O)[C@H]2O[C@H]2C[C@](C)(N)[C@H](O)[C@H](C)O2)Oc2ccc(cc2Cl)[C@H]1O [vancomycin]
[1]; read-out: KD from serum calibration curve (ΔEP)
  Kd: ~60 µM
[1]; saturating vancomycin
  total relative change in ΔEP at saturating concentration: ~50%

## NC[C@H]1O[C@H](O[C@H]2[C@H](O)[C@@H](O[C@H]3O[C@H](CO)[C@@H](O)[C@H](N)[C@H]3O)[C@H](N)C[C@@H]2N)[C@H](N)C[C@@H]1O [tobramycin]
[2]; 10 mM tobramycin, undiluted serum vs phosphate-buffered saline
  relative change in ΔEP in undiluted serum, less than the gain seen in phosphate-buffered saline: 30%
[2]; [5]
  IP (peak current) increase, relative signal change at saturation (signal-on): 20%
  ΔEP decrease, relative signal change at saturation (signal-off): 80%
[2]; CV at 5 V·s^−1, phosphate-buffered saline, Hill fit, 5 electrodes, read-out: KD (dissociation constant from ΔEP dose-response curve)
  Kd: 80 ± 7 µM
[2]; saturating tobramycin 10 mM, without target ~100 mV, scanning rates ~1-10 V·s^−1
  ΔEP (peak-to-peak separation) after target addition: ~30 mV
[2]; undiluted serum, ΔEP-based interrogation
  affinity in undiluted serum relative to phosphate-buffered saline: significant decrease in affinity

## CCN(CC)CCOC(=O)c1ccc(N)cc1 [procaine]
procaine-binding aptamer [3]; cyclic voltammetry, read-out: KD from calibration curve (ΔEP)
  Kd: ~500 µM
procaine-binding aptamer [3]; saturating procaine
  relative decrease in ΔEP at saturating concentration: ~80%
procaine-binding aptamer [4]
  Kd: 1.9 mM and ~2 mM
